# Test results: the supplement of paper PMC10331698
# ± gives the standard deviation of the averaged measurements.
# Experiments:
# Test in all cases: level (log10 ratio to DMSO vehicle control); higher = higher biomarker level / cell amount than vehicle control
# Details in all cases: in DMSO
# [1] = compound: CC(C)(C)C(=O)CC(=O)C(F)(F)C(F)(F)C(F)(F)F [(Heptafluorobutanoyl)pivaloylmethane]
# Procedure: (§1)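 BioMAP Diversity Plus panel of 12 human primary cell co-culture systems (3C, 4H, LPS, SAg, BT, BF4T, BE3C, CASM3C, HDF3CGF, KF3CT, MyoF, Mphg). Compounds were added 1 h before stimulation and left for 24 h (MyoF 48 h; BT 72 h for soluble read-outs or 6 d for IgG). Biomarkers were read by ELISA, cytotoxicity by SRB, PBMC viability and proliferation by Alamar Blue. Each well value was divided by the mean of 8 DMSO control wells on the same plate and log10 transformed; duplicate blinded samples were tested at 4 concentrations.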
# [2] = compound: CCCCCCCCC(F)(F)C(F)(F)C(F)(F)C(F)(F)C(F)(F)C(F)(F)F [1-(Perfluorohexyl)octane]
# Procedure: as §1
# [3] = compound: CNS(=O)(=O)C(F)(F)C(F)(F)C(F)(F)C(F)(F)C(F)(F)C(F)(F)C(F)(F)C(F)(F)F [N-Methylperfluorooctanesulfonamide]
# Procedure: as §1
# [4] = compound: N=C(N)C(F)(F)C(F)(F)C(F)(F)C(F)(F)C(F)(F)C(F)(F)C(F)(F)F [Perfluorooctanamidine]
# Procedure: as §1
# [5] = compound: NC(=O)C(F)(F)C(F)(F)C(F)(F)C(F)(F)C(F)(F)C(F)(F)C(F)(F)F [Perfluorooctanamide]
# Procedure: as §1
# [6] = compound: O=C(O)C(F)(F)C(F)(F)C(F)(F)C(=O)O [Hexafluoroglutaric acid]
# Procedure: as §1
# [7] = compound: O=C(O)CCC(F)(F)C(F)(F)C(F)(F)C(F)(F)C(F)(F)F [2H,2H,3H,3H-Perfluorooctanoic acid]
# Procedure: as §1
Test System,level (log10) ([1]; 6700 nM),level (log10) ([1]; 20000 nM),level (log10) ([1]; 60000 nM),level (log10) ([2]; 6700 nM),level (log10) ([2]; 20000 nM),level (log10) ([3]; 6700 nM),level (log10) ([3]; 20000 nM),level (log10) ([3]; 60000 nM),level (log10) ([4]; 6700 nM),level (log10) ([4]; 20000 nM),level (log10) ([4]; 60000 nM),level (log10) ([5]; 6700 nM),level (log10) ([5]; 20000 nM),level (log10) ([5]; 60000 nM),level (log10) ([6]; 6700 nM),level (log10) ([6]; 20000 nM),level (log10) ([6]; 60000 nM),level (log10) ([7]; 6700 nM),level (log10) ([7]; 20000 nM),level (log10) ([7]; 60000 nM)
SAg:CCL2/MCP-1,-0.005,-0.0155 ± 0.0035,-0.0085 ± 0.05,-0.01,0.0015 ± 0.018,-0.0205 ± 0.0035,-0.003 ± 0.011,-0.004 ± 0.0085,-0.004 ± 0.0014,0.0225 ± 0.005,-0.015,-0.008 ± 0.021,-0.02 ± 0.018,-0.0085 ± 0.042,-0.028 ± 0.0071,-0.0205 ± 0.0035,-0.0205 ± 0.016,-0.005 ± 0.0085,-0.007 ± 0.02,-0.019 ± 0.025
SAg:CD38,0.0075 ± 0.097,0.017 ± 0.065,-0.0125 ± 0.00071,0.0015 ± 0.0078,0.0105 ± 0.00071,-0.012 ± 0.0085,-0.0255 ± 0.012,-0.0515 ± 0.0064,0.009 ± 0.017,0.001 ± 0.013,-0.074,0.0005 ± 0.005,0.0085 ± 0.028,0.003 ± 0.018,-0.002 ± 0.0071,-0.0075 ± 0.00071,0.0075 ± 0.021,-0.0215 ± 0.037,-0.024 ± 0.041,-0.0595 ± 0.03
SAg:CD40,-0.0125 ± 0.011,-0.0335 ± 0.0021,-0.0515 ± 0.0078,-0.0275 ± 0.00071,-0.017 ± 0.016,-0.016 ± 0.02,-0.0415 ± 0.012,-0.0695 ± 0.025,-0.0055 ± 0.0021,0.014 ± 0.023,-0.093,-0.0215 ± 0.028,-0.0195 ± 0.0064,-0.021 ± 0.033,-0.012 ± 0.0014,-0.0225 ± 0.022,0.0095 ± 0.0092,-0.0325 ± 0.054,-0.025 ± 0.052,-0.034 ± 0.048
SAg:CD62E/E-Selectin,-0.003 ± 0.042,-0.0235 ± 0.005,-0.106 ± 0.04,-0.019 ± 0.013,0.003 ± 0.0099,-0.021 ± 0.0042,-0.0475 ± 0.019,-0.043 ± 0.0071,0.004 ± 0.0014,0.0265 ± 0.00071,-0.049,-0.0135 ± 0.035,-0.0265 ± 0.00071,0.0145 ± 0.0092,-0.004 ± 0.033,-0.008 ± 0.052,-0.0025 ± 0.0078,-0.01 ± 0.03,0.0015 ± 0.025,0.029 ± 0.016
SAg:CD69,-0.027 ± 0.023,-0.023 ± 0.02,-0.007 ± 0.014,-0.0045 ± 0.011,-0.0045 ± 0.028,-0.0325 ± 0.0064,-0.0405 ± 0.022,-0.0685 ± 0.053,0.006 ± 0.03,-0.0035 ± 0.019,-0.036,-0.002 ± 0.028,0.0025 ± 0.013,-0.0065 ± 0.023,-0.0125 ± 0.0064,-0.016 ± 0.013,0.005 ± 0.0042,-0.0265 ± 0.043,-0.025 ± 0.038,-0.0145 ± 0.028
SAg:CXCL8/IL-8,-0.0195 ± 0.046,-0.062 ± 0.024,-0.098 ± 0.14,-0.013 ± 0.0085,0.032 ± 0.041,-0.0435 ± 0.026,-0.0395 ± 0.005,-0.0275 ± 0.0035,0.005 ± 0.018,0.023 ± 0.0085,-0.022,-0.019 ± 0.041,-0.0255 ± 0.0021,0.056,-0.011,-0.041 ± 0.042,0.0285 ± 0.077,-0.029 ± 0.079,-0.0335 ± 0.039,0.0525 ± 0.018
SAg:CXCL9/MIG,-0.002 ± 0.011,0.0015 ± 0.00071,0.002 ± 0.016,-0.002 ± 0.0057,0.0095 ± 0.016,-0.006 ± 0.017,-0.0065 ± 0.0021,-0.013 ± 0.011,0 ± 0.0085,0.0085 ± 0.0021,0.007,-0.0075 ± 0.005,-0.0025 ± 0.012,0.009 ± 0.0057,-0.0015 ± 0.00071,-0.012 ± 0.0042,-0.0005 ± 0.005,-0.0005 ± 0.015,-0.0105 ± 0.018,0 ± 0.0057
SAg:PBMC Cytotoxicity,-0.0265 ± 0.013,-0.007 ± 0.017,-0.124 ± 0.15,0.023 ± 0.011,0.023 ± 0.017,0.0065 ± 0.018,0.034 ± 0.0042,0.044 ± 0.045,0.011 ± 0.021,0.003 ± 0.016,-0.263,-0.027 ± 0.038,-0.0135 ± 0.025,0.024 ± 0.034,0.0035 ± 0.0078,0.014 ± 0.0042,-0.005 ± 0.058,0.0125 ± 0.0078,0.0255 ± 0.039,0.0115 ± 0.039
SAg:Proliferation,-0.0415 ± 0.011,-0.033 ± 0.0057,-0.0835 ± 0.1,0.0125 ± 0.04,0.0675 ± 0.03,-0.0295 ± 0.026,-0.0755 ± 0.0092,-0.048 ± 0.1,0.0195 ± 0.011,0 ± 0.048,-0.565,-0.05 ± 0.071,-0.0255 ± 0.033,-0.001 ± 0.0014,-0.019 ± 0.0071,-0.0445 ± 0.033,-0.0275 ± 0.013,-0.011 ± 0.017,-0.0475 ± 0.067,-0.115
SAg:SRB,-0.0035 ± 0.0092,-0.0025 ± 0.005,-0.031 ± 0.034,0.0035 ± 0.0078,-0.004 ± 0.018,-0.0095 ± 0.022,-0.021 ± 0.02,-0.0685 ± 0.036,-0.0025 ± 0.0078,0.0025 ± 0.018,-0.084,0.002 ± 0.0071,-0.0005 ± 0.0064,-0.009 ± 0.0014,-0.0055 ± 0.00071,-0.0105 ± 0.016,-0.0035 ± 0.016,-0.0065 ± 0.00071,-0.0095 ± 0.0035,-0.0025 ± 0.013
